{"source": "patent US6420532B1", "about": "“Method of obtaining compositions comprising Y2 specific compounds” (Synaptic Pharmaceutical Corporation, priority 1994, dated 2002)", "key": {"Y1 receptor": {"system": "Y1 receptor", "assay": "Whole cell 125I-PYY binding, COS-7 cells transfected with the Y1 gene", "design": "species or system human", "conditions": "100 fold excess of cold peptide", "method": "DNA from pools of ≈5000 independent clones was transfected into COS-7 cells by a modification of the DEAE-dextran procedure (17). COS-7 cells were grown in Dulbecco's Modified Eagle Medium (DMEM) supplemented with 10% fetal calf serum, 100 U/mL of penicillin, 100 μg/mL of streptomycin, 2 mM L-glutamine (DMEM-C) at 37° C. in 5% CO2. The cells were seeded one day before transfection at a density of 30,000 cells/cm^2 in 6 well plates (Becton Dickinson, Lincoln Park, N.J.). On the next day, cells were washed twice with Phosphate Buffer Saline (PBS), 400 μl of transfection cocktail was added containing 1/10 of the DNA from each pool and DEAE-dextran (500 μg/mL) in PBS. After a 30 min. incubation at 37° C., 1.6 mL of chloroquine (80 μM in DMEM-C) was added and the cells incubated a further 2.5 hours at 37° C. The media was aspirated from each well and 1 mL of 10% DMSO in DMEM-C added. After 2.5 min. incubation at room temperature, the media was aspirated, each well washed once with 1 mL PBS and the cells incubated 24 hours in DMEM-C. […]\nSince both Y1 and Y2 receptor subtypes are expressed in the hippocampus (2), we analyzed the DNA of positive pools by PCR with Y1 specific primers. […]"}, "human Y2 receptor [1]": {"molecular_target": "T1, human Y2 receptor (Homo sapiens, UniProt P49146)", "T1 sequence (P49146 1-381)": "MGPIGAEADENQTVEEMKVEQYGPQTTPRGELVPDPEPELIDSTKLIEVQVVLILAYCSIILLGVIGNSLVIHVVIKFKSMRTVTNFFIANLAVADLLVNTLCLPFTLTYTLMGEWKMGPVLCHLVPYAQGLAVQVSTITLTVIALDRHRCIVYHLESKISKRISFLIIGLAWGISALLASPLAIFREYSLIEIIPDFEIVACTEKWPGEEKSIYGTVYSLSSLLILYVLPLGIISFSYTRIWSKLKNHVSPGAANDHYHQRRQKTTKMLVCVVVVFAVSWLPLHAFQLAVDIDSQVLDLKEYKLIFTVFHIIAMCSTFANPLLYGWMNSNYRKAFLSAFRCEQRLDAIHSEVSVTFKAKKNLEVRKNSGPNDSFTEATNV", "conditions": "stably transfected NIH-3T3 cells"}, "human Y2 receptor [2]": {"molecular_target": "T1, human Y2 receptor", "assay": "Inhibition of forskolin-stimulated cAMP accumulation (radioimmunoassay), stably transfected 293 cells", "assay_type": "cell-based", "design": "expressed in transfected cells", "conditions": "maximum inhibition of cAMP accumulation relative to that produced by human NPY"}, "human Y2 receptor [3]": {"molecular_target": "T1, human Y2 receptor", "assay": "Intracellular calcium mobilization (Fura-2/AM), stably transfected 293 cells", "conditions": "pretreatment 100 ng/ml for 24 hours"}, "[4]": {"molecular_target": "T2, CG-13 receptors (human Y2 receptor) (Homo sapiens, UniProt P49146)", "T2 construct": "expressed in transfected cells; host or cells: COS-7 (transient, DEAE-dextran)", "T2 sequence (P49146 1-381)": "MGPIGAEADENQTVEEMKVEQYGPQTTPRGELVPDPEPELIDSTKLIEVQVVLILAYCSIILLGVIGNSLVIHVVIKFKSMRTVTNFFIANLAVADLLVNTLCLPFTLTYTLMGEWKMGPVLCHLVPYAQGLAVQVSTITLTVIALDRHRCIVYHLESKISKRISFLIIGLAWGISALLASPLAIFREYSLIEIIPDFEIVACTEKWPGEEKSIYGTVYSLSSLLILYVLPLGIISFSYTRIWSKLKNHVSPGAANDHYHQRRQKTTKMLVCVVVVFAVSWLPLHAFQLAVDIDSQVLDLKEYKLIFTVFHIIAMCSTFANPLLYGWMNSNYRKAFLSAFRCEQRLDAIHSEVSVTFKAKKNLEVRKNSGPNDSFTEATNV", "assay": "Competitive displacement of 125I-PYY, membranes of COS-7 cells transiently expressing CG-13 (human Y2)", "assay_type": "binding", "conditions": "100 μM Gpp(NH)p, human Y2 in COS-7"}, "rat Y2a receptor": {"molecular_target": "T3, rat Y2a receptor (Rattus norvegicus, UniProt Q9ERC0)", "T3 construct": "expressed in transfected cells; host or cells: COS-7 (transient); 4.0 kb EcoRI genomic fragment of rs5a in EXJ.RH", "T3 sequence (Q9ERC0 1-381)": "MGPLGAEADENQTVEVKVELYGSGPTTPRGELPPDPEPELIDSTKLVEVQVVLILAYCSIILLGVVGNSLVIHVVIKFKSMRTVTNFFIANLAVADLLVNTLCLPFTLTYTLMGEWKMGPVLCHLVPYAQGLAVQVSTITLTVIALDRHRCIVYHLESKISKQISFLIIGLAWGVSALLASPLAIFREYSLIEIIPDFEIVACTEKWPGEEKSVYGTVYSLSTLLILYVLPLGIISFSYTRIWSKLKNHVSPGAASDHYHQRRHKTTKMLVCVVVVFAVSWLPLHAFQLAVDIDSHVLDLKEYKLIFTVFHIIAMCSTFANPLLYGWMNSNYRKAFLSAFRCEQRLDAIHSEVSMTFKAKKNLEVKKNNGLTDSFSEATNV", "assay": "Competitive displacement of 125I-PYY, membranes of COS-7 cells transiently expressing rat Y2a", "assay_type": "binding", "conditions": "100 μM Gpp(NH)p, rat Y2a in COS-7"}, "human Y2 receptor [5]": {"molecular_target": "T1, human Y2 receptor", "assay": "125I-PYY binding to membranes from 293 stable clone (293-hY2-10)", "design": "expressed in transfected cells", "conditions": "100 μM Gpp(NH)p, 0.08 nM 125I-PYY, 293 cell membranes"}, "human Y2 receptor [6]": {"molecular_target": "T1, human Y2 receptor", "assay": "125I-PYY binding to membranes from stably transfected NIH-3T3 cells (N-hY2-5)", "design": "expressed in transfected cells", "conditions": "100 μM Gpp(NH)p, 0.08 nM 125I-PYY, NIH-3T3 cell membranes", "text": "Two positive clones were identified and isolated for further study (293 clone #10 and NIH-3T3 clone #5). […] The data serve to emphasize that the receptor/G protein interactions for a given receptor clone can vary depending upon the resident G proteins in the host cell line (93). Additional factors such as receptor density and receptor reserve can also play a role (92)."}, "PYY-preferring receptor": {"system": "PYY-preferring receptor", "conditions": "rat small intestine; cited from earlier work"}, "[7]": {"molecular_target": "T4, human hippocampal Y2 receptor (clone CG-13) (human, UniProt P49146 1-381)", "T4 construct": "381 amino acids; also called CG-13 receptor; human Y2", "T4 sequence": "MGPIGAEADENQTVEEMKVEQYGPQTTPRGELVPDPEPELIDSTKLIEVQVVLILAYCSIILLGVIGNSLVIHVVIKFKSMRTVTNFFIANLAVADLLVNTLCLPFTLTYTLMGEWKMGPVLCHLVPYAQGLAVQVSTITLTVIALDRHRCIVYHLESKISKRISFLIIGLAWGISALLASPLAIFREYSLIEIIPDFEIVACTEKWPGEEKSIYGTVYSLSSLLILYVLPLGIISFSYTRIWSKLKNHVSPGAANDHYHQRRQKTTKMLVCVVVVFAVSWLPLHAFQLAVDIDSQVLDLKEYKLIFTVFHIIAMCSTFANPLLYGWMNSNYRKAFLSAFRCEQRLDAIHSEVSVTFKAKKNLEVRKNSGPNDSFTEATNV", "assay": "125I-PYY displacement, COS-7 membranes, Ki from IC50"}, "[8]": {"molecular_target": "T5, rat Y2a receptor (encoded by rs5a) (rat)", "T5 chain": "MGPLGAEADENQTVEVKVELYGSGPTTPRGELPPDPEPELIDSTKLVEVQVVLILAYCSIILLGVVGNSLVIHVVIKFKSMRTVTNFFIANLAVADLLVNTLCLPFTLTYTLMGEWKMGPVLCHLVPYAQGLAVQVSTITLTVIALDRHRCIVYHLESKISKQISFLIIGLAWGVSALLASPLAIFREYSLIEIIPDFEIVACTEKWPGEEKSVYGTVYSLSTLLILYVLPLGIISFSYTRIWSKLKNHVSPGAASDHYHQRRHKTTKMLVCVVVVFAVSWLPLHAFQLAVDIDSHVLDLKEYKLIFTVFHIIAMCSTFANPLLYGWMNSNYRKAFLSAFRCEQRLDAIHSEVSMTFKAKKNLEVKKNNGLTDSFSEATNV", "assay": "125I-PYY displacement, COS-7 membranes, Ki from IC50"}}, "note": "Where no end group is shown, it is not given here.", "data": [{"molecule": "[Leu^31,Pro^34]NPY: analog of NPY modified at residues 31 and 34, species not stated", "values": [{"measurement": "inhibition of binding of 125I-PYY", "setting": "Y1 receptor", "value": "totally inhibited"}]}, {"molecule": "Neuropeptide Y [NPY, human]", "values": [{"measurement": "decrease of forskolin-stimulated cAMP accumulation", "setting": "human Y2 receptor [1]", "value": 50, "unit": "%"}, {"measurement": "Function Emax", "setting": "human Y2 receptor [2]", "value": 100, "unit": "%"}]}, {"molecule": "pertussis toxin", "values": [{"measurement": "decrease of the response to 300 nM human PYY", "setting": "human Y2 receptor [3]", "value": 93, "unit": "%"}]}, {"molecule": "Nc1nc2c(ncn2[C@@H]2O[C@H](COP(=O)(O)OP(=O)(O)NP(=O)(O)O)[C@@H](O)[C@H]2O)c(=O)[nH]1", "note": "[Gpp(NH)p]", "values": [{"measurement": "decrease of specific binding of 125I-PYY", "setting": "[4]", "value": 4, "unit": "%"}, {"measurement": "decrease of specific binding of 125I-PYY", "setting": "rat Y2a receptor", "value": 23, "unit": "%"}, {"measurement": "reduction of specific binding of 125I-PYY", "setting": "human Y2 receptor [5]", "value": 32, "unit": "%"}, {"measurement": "reduction of specific binding of 125I-PYY", "setting": "human Y2 receptor [6]", "value": 6, "unit": "%"}]}, {"molecule": "PYY: PYY, species not stated (Table 2, b7) [peptide YY]", "values": [{"measurement": "higher affinity for PYY than for NPY", "setting": "PYY-preferring receptor", "value": "5-10 fold"}]}, {"molecule": "SPEELSRYYASLRHYLNLVTRQRY-NH2 (peptide, UniProt P68005 13-36, looked up, range 13-36; also called PYY13-36, porcine)", "note": "[porcine PYY13-36]", "values": [{"measurement": "Ki", "setting": "[7]", "value": 1.5, "unit": "nM"}, {"measurement": "Ki", "setting": "[8]", "value": 1.5, "unit": "nM"}]}]}
